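1) Cells in 96-well plates. 2) Compound, 48 h, 5 concentrations. 3) Linear interpolation between surrounding doses. 4) Unreached endpoint = highest concentration. The concentration for 50% growth inhibition is given as GI50. TGI is the concentration that stops growth completely.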
Assays:
Experiment in all cases: growth of human tumour cells (NCI), 48 h
786-0 renal = tested on: 786-0 renal
ACHN renal = tested on: ACHN renal
A498 renal = tested on: A498 renal
OVCAR-4 ovarian = tested on: OVCAR-4 ovarian
IGROV1 ovarian = tested on: IGROV1 ovarian
U251 CNS = tested on: U251 CNS
HL-60(TB) leukemia = tested on: HL-60(TB) leukemia
SN12C renal = tested on: SN12C renal
UACC-257 melanoma = tested on: UACC-257 melanoma
LOX IMVI melanoma = tested on: LOX IMVI melanoma

| Compound | GI50 (786-0 renal) | TGI (786-0 renal) | GI50 (ACHN renal) | TGI (ACHN renal) | GI50 (A498 renal) | TGI (A498 renal) | GI50 (OVCAR-4 ovarian) | TGI (OVCAR-4 ovarian) | GI50 (IGROV1 ovarian) | TGI (IGROV1 ovarian) | GI50 (U251 CNS) | TGI (U251 CNS) | GI50 (HL-60(TB) leukemia) | TGI (HL-60(TB) leukemia) | GI50 (SN12C renal) | TGI (SN12C renal) | TGI (UACC-257 melanoma) | TGI (LOX IMVI melanoma) | GI50 (LOX IMVI melanoma) | GI50 (UACC-257 melanoma) |
| --- | --- | --- | --- | --- | --- | --- | --- | --- | --- | --- | --- | --- | --- | --- | --- | --- | --- | --- | --- | --- |
| COc1cc(-c2cc(-c3ccc(Nc4ccnc5cc(Cl)ccc45)cc3)nc(N3CCOCC3)n2)cc(OC)c1OC | 2.08 µM | 4.81 µM | 2.34 µM | 5.02 µM | 28.2 µM | 74.4 µM | 1.89 µM | 4.3 µM | 1.91 µM | 4.03 µM | 1.62 µM | 3.12 µM | 5.99 µM | 82.1 µM | 1.93 µM | 3.81 µM |  |  |  |  |
| CN(C)C(=Nc1nc(=[N+](C)C)ss1)N(C)C |  | > 100 µM |  | > 100 µM |  | > 100 µM |  | > 100 µM |  | > 100 µM |  | > 100 µM |  | > 100 µM |  | > 100 µM | > 100 µM |  |  |  |
| COC(=O)C1OC2(CCCC3CC32)O[C@H]1C(=O)OC (some centres not stated) |  | > 100 µM |  | > 100 µM |  |  |  | > 100 µM |  | > 100 µM |  | > 100 µM |  | > 100 µM |  | > 100 µM | > 100 µM | > 100 µM |  |  |
| O=C1NC(=O)C(=Nc2cccc3c(=O)[nH][nH]c(=O)c23)C(c2nc3ccccc3s2)C1=O (configuration not stated) |  | > 100 µM |  | > 100 µM |  | > 100 µM |  | > 100 µM |  | > 100 µM |  | > 100 µM |  | > 100 µM |  | > 100 µM | > 100 µM |  |  |  |
| Cc1cn(C2C=CC(CO)O2)c(=O)[nH]c1=O (configuration not stated) |  | > 1000 µM |  | > 1000 µM |  |  |  | > 1000 µM |  | > 1000 µM |  | > 1000 µM |  | > 1000 µM |  | > 1000 µM | > 1000 µM | > 1000 µM |  |  |
| COc1ccc2c(C3(c4cn(C)c5cc(OC)ccc45)C(=O)Nc4ccc(Cl)cc43)cn(C)c2c1 | 4.12 µM | 70 µM | 3.32 µM | > 100 µM | 4.5 µM | 88.7 µM | 3.35 µM | > 100 µM | 2.82 µM | > 100 µM | 3.81 µM | > 100 µM |  |  | 1.91 µM | 4.63 µM | 8.56 µM | 21.9 µM | 3.4 µM | 2.29 µM |
| COc1ccccc1C1=C(Nc2ccccc2)C(=O)NC1=O | > 25 µM | > 25 µM | > 25 µM | > 25 µM | > 25 µM | > 25 µM | > 25 µM | > 25 µM | > 25 µM | > 25 µM | > 25 µM | > 25 µM | > 25 µM | > 25 µM | > 25 µM | > 25 µM |  | > 25 µM | > 25 µM |  |
| Nc1cc(O)ccc1N=Nc1ccc(-c2nc3ccccc3[nH]2)cc1 | 77.2 µM | > 100 µM | 34 µM | > 100 µM |  |  | > 100 µM | > 100 µM | 19.7 µM | > 100 µM | 30.3 µM | > 100 µM | 44.6 µM | > 100 µM | 53.5 µM | > 100 µM | > 100 µM | 37.1 µM | 7.6 µM | 65.3 µM |
| O=C(CN1CCN(c2cc3c(cc2F)c(=O)c(C(=O)O)cn3C2CC2)CC1)Nc1nc(-c2ccc(Cl)cc2)cs1 | 4.24 µM | > 100 µM | 3.05 µM | > 100 µM |  |  | 6.64 µM | 98.8 µM | 7.91 µM | > 100 µM | 3.74 µM | > 100 µM | 2.71 µM | 6.29 µM | 3.69 µM | > 100 µM | 22.2 µM | 19 µM | 3.39 µM | 3.94 µM |
| O=[N+]([O-])c1ccc(-c2noc(-c3ccc(Cl)cc3)c2C2=NCCN2)cc1 |  | > 100 µM |  | > 100 µM |  |  |  | > 100 µM |  | > 100 µM |  | > 100 µM |  | > 100 µM |  | > 100 µM | > 100 µM | > 100 µM |  |  |
| CCOC(=O)c1c(C)n(Cc2ccccc2)c2c1cc(O)c1[nH]c(Cc3ccccc3)nc12 | 20.2 µM | 72 µM | 23 µM | > 100 µM | 28.5 µM | > 86.1 µM | 10.9 µM | > 57.3 µM | 15.8 µM | > 57.7 µM | 7.46 µM | 33 µM |  |  | 10.5 µM | 39.8 µM | > 70.2 µM | > 67.8 µM | 13.8 µM | 16.2 µM |
| Cc1nnc2c3nnc(C)n3c3ccccc3n12 |  | > 100 µM |  | > 100 µM |  | > 100 µM |  | > 100 µM |  | > 100 µM |  | > 100 µM |  |  |  | > 100 µM | > 100 µM | > 100 µM |  |  |
| O=C(CC1(O)C(=O)Nc2ccc(Br)cc21)c1ccc(Cl)cc1Cl (configuration not stated) |  | > 100 µM |  | > 100 µM |  | > 100 µM |  | > 100 µM |  | > 100 µM |  | > 100 µM |  | 48.3 µM |  | > 100 µM | > 100 µM |  |  |  |
| COC(=O)/C(=N/Nc1cccc(Cl)c1)C(C(=O)C(=O)Nc1cccc(Cl)c1C)c1nc2ccccc2nc1C (configuration not stated) |  | > 100 µM |  | > 100 µM |  | > 100 µM |  | > 100 µM |  | > 100 µM |  |  |  | > 100 µM |  | > 100 µM | > 100 µM |  |  |  |
| S=C(Nc1ccc(N=Nc2ccccc2)cc1)SCc1ccccc1 |  | 38 µM |  | 31.3 µM |  | 43.7 µM |  | 33.2 µM |  | 32.6 µM |  | 29.7 µM |  |  |  | 29.2 µM | 33.3 µM | 38.5 µM |  |  |
| FC(F)(F)c1ccc(-c2cnc(-n3cc(COCCN4CCCCC4)nn3)nc2NC2CCCCCC2)cc1 | 3.73 µM | 7.28 µM | 4.53 µM | 8.39 µM | 3.56 µM | 7.04 µM | 3.11 µM | 6.35 µM | 3.9 µM | 10.2 µM | 3.5 µM | 6.87 µM | 3.84 µM | 8.26 µM | 3.98 µM | 7.56 µM |  | 7.88 µM | 3.89 µM |  |
| CC(=O)c1c(CN(C)c2ccccc2)n([O-])c2ccccc2[n+]1=O | 55 µM | > 100 µM | 32.9 µM | > 100 µM | 28.1 µM | > 100 µM | 29 µM | > 100 µM | 45.4 µM | > 100 µM | 29.7 µM | > 100 µM |  |  | 24.9 µM | 87.4 µM | > 100 µM | > 100 µM | 38.2 µM | 89.2 µM |

Reference: PubChem BioAssay (NCI)
